This is an account of results in ChEMBL document CHEMBL1127402, “Orally active non-peptide fibrinogen receptor (GpIIb/IIIa) antagonists: identification of 4-[4-[4-(aminoiminomethyl)phenyl]-1-piperazinyl]-1-piperidineacetic acid as a long-acting, broad-spectrum antithrombotic agent” (J Med Chem, 1994).

Each structure is given as a SMILES string.

The term IC50 denotes the concentration needed to halve the response being measured. Low values mean greater potency, high ones weaker potency.

The species entered for this experiment is Homo sapiens. The experiment is described as follows: Inhibition of 10 uM ADP induced aggregation in human gel filtered platelets in the presence fibrinogen and aspirin. It is filed as functional.
In turn, `CCN(CC)CCO[C@H]1CC[C@H]([C@H]2CC[C@](O)(CC(=O)O)CC2)CC1` registered an IC50 of 54 µM. This lies in the double-digit micromolar range. Compound `N=C(N)c1ccc(N2CCN(C3CCN(CC(=O)O)CC3)CC2)cc1` yielded an IC50 of 0.037 µM. Against the preceding compound, the IC50 is about 1500-fold lower. As for `N/C(=N\CC(F)(F)F)c1ccc(-c2ccc(C3=CCC(O)(CC(=O)O)CC3)cc2)cc1` (centres undefined), the figure is 0.21 µM; as for `N=C(N)c1ccc(-c2ccc(N3CC[N+](CC(=O)O)(Cc4ccccc4)CC3)cc2)cc1`, 0.031 µM.
